Laboratory results taken from patent US20140329858A1, “Cyclic Urea Derivatives As Androgen Receptor Antagonists” (priority 2011, published 2014).

system: Vcap cells; assay: Dihydrotestosterone (DHT) mediated XTT cell proliferation assay for screening AR antagonists using Vcap cells; format: cell-based; settings: Homo sapiens, 240 h, in the presence of 0.2 nM DHT, XTT readout on Day 10, IC50 curves from 8 concentrations
Protocol: Dihydrotestosterone (DHT) Mediated XTT Cell Proliferation Assay for Screening AR Antagonists Using Vcap cells
The Vcap cells (4×10^6 cells) were seeded in a T-75 flask containing DMEM with 15% FBS. After 72 hours, the media was removed; the cells were washed once and replaced with phenol red free DMEM containing 8% charcoal stripped serum. Then, the cells were starved in phenol red free DMEM with 8% charcoal stripped serum for 5 days. Following the starvation, the cells were harvested and seeded in 96 well plates (10×10^3 cells per well) in phenol red free DMEM with 8% charcoal stripped serum (Day 0). The cells were allowed to settle and on Day 4 they were treated with different concentrations of the compound (30 μM, 10 μM, 1 μM, 500 nM, 100 nM, 10 nM, 1 nM, 0.1 nM) in the presence of 0.2 nM DHT. DHT alone and a DMSO controls were also included. All treatments were done in triplicate. The drugs were replenished on Day 7 and the cells were allowed to grow for another 72 hours. On Day 10, the experiment was terminated by adding the XTT reagent (2,3-bis[2-methoxy-4-notro-5-sulfophenyl]-2H-tetrazolium-5-caboxyanilide inner salt) dissolved in Phenol red free DMEM without serum. The cells with the XTT reagents were incubated inside the CO2 incubator for 3-4 hours for color development; after which the readings were taken at […] using a spectramax Gemini plate reader.
Data fitting: The IC50 curves for the 8 compound concentrations were calculated with GraphPad Prism software using the sigmoidal dose-response function. (Graphpad Software, San Diego, Calif., USA).

Compound | IC50
N#Cc1ccc(N2C(=O)N(c3ccc(C(=O)N[C@@H]4CCOC4)c(F)c3)[C@@H]3CCCC[C@H]32)cc1C(F)(F)F (mixture of isomers) [Example 34, 4-((3aR,7aR)-3-(4-cyano-3-(trifluoromethyl)phenyl)-2-oxooctahydro-1H-benzo[d]imidazol-1-yl)-2-fluoro-N—((R)-tetrahydrofuran-3-yl)benzamide and 4-((3aS,7aS)-3-(4-cyano-3-(trifluoromethyl)phenyl)-2-oxooctahydro-1H-benzo[d]imidazol-1-yl)-2-fluoro-N—((R)-tetrahydrofuran-3-yl)benzamide] | 317 nM
CNC(=O)c1ccc(N2C(=O)N(c3ccc(C#N)c(C(F)(F)F)c3)[C@@H]3CCCC[C@H]32)cc1F (racemic) [Example 1, Trans-4-{3-[4-cyano-3-(trifluoromethyl)phenyl]-2-oxo-octahydro-1H-1,3-benzodiazol-1-yl}-2-fluoro-N-Methylbenzamide (±)] | 245 nM
N#Cc1ccc(N2C(=O)N(c3ccc(C#N)c(C(F)(F)F)c3)[C@@H]3CCCC[C@H]32)cc1C(F)(F)F (racemic) [Example 2, Trans-4,4′-(2-oxohexahydro-1H-benzo[d]imidazole-1,3(2H)-diyl)bis(2-(trifluoromethyl)benzonitrile) (±)] | 240 nM
N#Cc1ccc(N2C(=O)N(c3ccoc3)[C@@H]3CCCC[C@H]32)cc1C(F)(F)F (racemic) [Example 3, Trans-4-(3-(furan-3-yl)-2-oxoocta-hydro-1H-benzo[d]imidazol-1-yl)-2-trifluoromethyl)benzonitrile (±)] | 1520 nM
N#Cc1ccc(N2C(=O)N(c3ccncc3)[C@@H]3CCCC[C@H]32)cc1C(F)(F)F (racemic) [Example 4, Trans-4-(2-oxo-3-(pyridin-4-yl)octahydro-1H-benzo[d]imidazol-1-yl)-2-(trifluoromethyl)benzonitrile (±)] | 1040 nM
N#Cc1ccc(N2C(=O)N(c3ccccc3)[C@@H]3CCCC[C@H]32)cc1C(F)(F)F (racemic) [Example 5, Trans-4-(2-oxo-3-phenyloctahydro-1H-benzo[d]imidazol-1-yl)-2-(trifluoromethyl)benzonitrile (±)] | 1020 nM
CCOC(=O)c1ccc(N2C(=O)N(c3ccc(C#N)c(C(F)(F)F)c3)[C@@H]3CCCC[C@H]32)cc1F (racemic) [Example 6, Trans-ethyl-4-(3-(4-cyano-3-trifluoromethyl)phenyl)-2-oxooctahydro-1H-benzo[d]imidazol-1-yl)-2-fluorobenzoate (±)] | > 10000 nM
CCOC(=O)c1ccc(N2C(=O)N(c3ccc(C#N)c(C(F)(F)F)c3)[C@@H]3CCCC[C@H]32)s1 (racemic) [Example 8, Trans-ethyl-5-(3-(4-cyano-3-(trifluoromethyl)phenyl)-2-oxooctahydro-1H-benzo[d]imidazol-1-yl)thiophene-2-carboxylate (±)] | > 10000 nM
N#Cc1ccc(N2C(=O)N(c3cccc(S(N)(=O)=O)n3)[C@@H]3CCCC[C@H]32)cc1C(F)(F)F (racemic) [Example 9, Trans-6-(3-(4-cyano-3-(trifluoromethyl)phenyl)-2-oxooctahydro-1H-benzo[c]imidazol-1-yl) pyridine-2-sulfonamide (±)] | > 10000 nM
N#Cc1ccc(N2C(=O)N(c3ccnc(F)c3)[C@@H]3CCCC[C@H]32)cc1C(F)(F)F (racemic) [Example 10, Trans-4-(3-(2-fluoropyridin-4-yl)-2-oxooctahydro-1H-benzo[d]imidazol-1-yl)-2-(trifluoromethyl)benzonitrile (±)] | 365 nM
N#Cc1ccc(N2C(=O)N(c3ccnc(C(F)(F)F)c3)[C@@H]3CCCC[C@H]32)cc1C(F)(F)F (racemic) [Example 11, Trans-4-(2-oxo-3-(2-(trifluoromethyl)pyridin-4-yl)octahydro-1H-benzo[d]imidazol-1-yl)-2-(trifluoromethyl)benzonitrile (±)] | 1240 nM
CC(=O)Nc1ccc(N2C(=O)N(c3ccc(C#N)c(C(F)(F)F)c3)[C@@H]3CCCC[C@H]32)cc1F (racemic) [Example 12] | 533 nM
CC(=O)N(C)c1ccc(N2C(=O)N(c3ccc(C#N)c(C(F)(F)F)c3)[C@@H]3CCCC[C@H]32)cc1F (racemic) [Example 13, Trans-N-(4-(3-(4-cyano-3-(trifluoromethyl)phenyl)-2-oxooctahydro-1H-benzo[d]imidazol-1-yl)-2-fluorophenyl)-N-methylacetamide (±)] | 1050 nM
CNc1ccc(N2C(=O)N(c3ccc(C#N)c(C(F)(F)F)c3)[C@@H]3CCCC[C@H]32)cc1F (racemic) [Example 14, Trans-4-(3-(3-fluoro-4-(methylamino)phenyl)-2-oxooctahydro-1H-benzo[d]im-idazol-1-yl)-2-(trifluoromethyl)benzonitrile (±)] | 715 nM
N#Cc1ccc(N2C(=O)N(c3ccc(N)c(F)c3)[C@@H]3CCCC[C@H]32)cc1C(F)(F)F (racemic) [Example 15, Trans-(4-(-3-(4-amino-3-fluorophenyl)-2-oxooctahydro-1H-benzo[d]imidazol-1-yl)-2-(trifluoromethyl)benzonitrile (±)] | 823 nM
CS(=O)(=O)Nc1ccc(N2C(=O)N(c3ccc(C#N)c(C(F)(F)F)c3)[C@@H]3CCCC[C@H]32)cc1F (racemic) [Example 16, Trans-N-(4-(3-(4-cyano-3-(trifluoromethyl)phenyl)-2-oxooctahydro-1H-benzo[d]imidazol-1-yl)-2-fluorophenyl)methanesulfonamide (±)] | 2450 nM
N#Cc1ccc(N2C(=O)N(c3ccc(C(=O)O)c(F)c3)[C@@H]3CCCC[C@H]32)cc1C(F)(F)F (racemic) [Example 17, Trans-4-(3-(4-cyano-3-(trifluoromethyl)phenyl)-2-oxooctahydro-1H-benzo[d]im-idazol-1-yl)-2-fluorobenzoic acid (±)] | > 10000 nM
CONC(=O)c1ccc(N2C(=O)N(c3ccc(C#N)c(C(F)(F)F)c3)[C@@H]3CCCC[C@H]32)cc1F (racemic) [Example 18, Trans-4-(3-(4-cyano-3-(trifluoromethyl)phenyl)-2-oxooctahydro-1H-benzo[d]im-idazol-1-yl)-2-fluoro-N-methoxybenzamide (±)] | 374 nM
N#Cc1ccc(N2C(=O)N(c3ccc(C(=O)NOCC4CC4)c(F)c3)[C@@H]3CCCC[C@H]32)cc1C(F)(F)F (racemic) [Example 19, Trans-4-(3-(4-cyano-3-(trifluoromethyl)phenyl)-2-oxooctahydro-1H-benzo[d]im-idazol-1-yl)-N-(cyclopropylmethoxy)-2-fluorobenzamide (±)] | 233 nM
COCCONC(=O)c1ccc(N2C(=O)N(c3ccc(C#N)c(C(F)(F)F)c3)[C@@H]3CCCC[C@H]32)cc1F (racemic) [Example 20, Trans-4-(3-(4-cyano-3-(trifluoromethyl)phenyl)-2-oxooctahydro-1H-benzo[d]im-idazol-1-yl)-2-fluoro-N-(2-methoxyethoxy)benzamide (±)] | 322 nM
N#Cc1ccc(N2C(=O)N(c3ccc(C(=O)NOCC4CCC4)c(F)c3)[C@@H]3CCCC[C@H]32)cc1C(F)(F)F (racemic) [Example 21, Trans-4-(3-(4-cyano-3-(trifluoromethyl)phenyl)-2-oxooctahydro-1H-benzo[c]im-idazol-1-yl)-N-(cyclobutylmethoxy)-2-fluorobenzamide (±)] | 255 nM
CC(C)CONC(=O)c1ccc(N2C(=O)N(c3ccc(C#N)c(C(F)(F)F)c3)[C@@H]3CCCC[C@H]32)cc1F (racemic) [Example 22, Trans-4-(3-(4-cyano-3-(trifluoromethyl)phenyl)-2-oxooctahydro-1H-benzo[d]im-idazol-1-yl)-2-fluoro-N-isobutoxybenzamide (±)] | 196 nM
CC(CO)ONC(=O)c1ccc(N2C(=O)N(c3ccc(C#N)c(C(F)(F)F)c3)[C@@H]3CCCC[C@H]32)cc1F (mixture of isomers) [Example 24, Trans-4-(3-(4-cyano-3-(trifluoromethyl)phenyl)-2-oxooctahydro-1H-benzo[c]im-idazol-1-yl)-2-fluoro-N-((1-hydroxypropan-2-yl)oxy)benzamide (±)] | 1520 nM

same assay, conditions: in the presence of 0.2 nM DHT, XTT readout on Day 10, IC50 curves from 8 concentrations

Compound | IC50
4-((3aS,7aS)-3-(4-cyano-3-(trifluoromethyl)phenyl)-2-oxooctahydro-1H-benzo[d]imidazol-1-yl)-2-fluoro-N—((S)-tetrahydrofuran-3-yl)benzamide and 4-((3aS,7aS)-3-(4-cyano-3-(trifluoromethyl)phenyl)-2-oxooctahydro-1H-benzo[c]imidazol-1-yl)-2-fluoro-N—((R)-tetrahydrofuran-3-yl)benzamide [Example 35] | 236 nM
CC(COC(C)(C)C)ONC(=O)c1ccc(N2C(=O)N(c3ccc(C#N)c(C(F)(F)F)c3)[C@@H]3CCCC[C@H]32)cc1F (mixture of isomers) [Example 23, Trans-N-((1-(tert-butoxy)propan-2-yl)oxy)-4-(3-(4-cyano-3-(trifluoromethyl)phenyl)-2-oxooctahydro-1H-benzo[d]imidazol-1-yl)-2-fluorobenzamide (±)] | > 10000 nM
